# Tests used:
# Assay type in all cases: in vivo
# [1] = tested on: oat, wild (wild oat, Avena fatua); test: Test A preemergence soil spray, visual injury rating 0-100; conditions: 10 days
# How it was run: (§1)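 Visual injury ratings (0, no effect; 100, complete control) were assigned relative to untreated plants 10 days after treatment. Test chemicals, formulated with a surfactant-containing non-phytotoxic solvent, were applied in loam-sand soil either as a directed soil spray before emergence or to emerged plants, and plants were kept in a greenhouse.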
# corn (Zea mays) [2] = test: as above; conditions: 10 days
# How it was run: as §1
# kochia (Bassia scoparia) [3] = test: as above; conditions: 10 days
# How it was run: as §1
# [4] = tested on: ragweed (common ragweed, Ambrosia artemisiifolia); test: as above; conditions: 10 days
# How it was run: as §1
# [5] = tested on: blackgrass (Alopecurus myosuroides); test: as above; conditions: 10 days
# How it was run: as §1
# [6] = tested on: wheat (Triticum aestivum); test: as above; conditions: 10 days
# How it was run: as §1
# soybean (Glycine max) [7] = test: as above; conditions: 10 days
# How it was run: as §1
# [8] = tested on: barnyardgrass (Echinochloa crus-galli); test: as above; conditions: 10 days
# How it was run: as §1
# [9] = tested on: green foxtail (Setaria viridis); test: as above; conditions: 10 days
# How it was run: as §1
# [10] = tested on: ryegrass, Italian (italian ryegrass, Lolium multiflorum); test: as above; conditions: 10 days
# How it was run: as §1
# [11] = tested on: palmer (palmer amaranth, palmer pigweed, Amaranthus palmeri); test: as above; conditions: 10 days
# How it was run: as §1
# [12] = tested on: sedge, umbrella (small-flower umbrella sedge, Cyperus difformis); test: Test B flooded paddy test, visual plant response rating 0-100; conditions: 250 g ai/ha, Flood, applied to paddy water, evaluated after 13 days
# How it was run: (§2)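 Visual evaluation after 13 days. Water-applied treatment, 3 cm flood depth held constant, plants at 2-leaf stage at treatment.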
# [13] = tested on: barnyardgrass (Echinochloa crusgalli); test: as above; conditions: 250 g ai/ha, Flood, applied to paddy water, evaluated after 13 days
# How it was run: as §2
# rice (Oryza sativa) = test: as above; conditions: 250 g ai/ha, Flood, applied to paddy water, evaluated after 13 days
# How it was run: as §2
# [14] = tested on: ducksalad (Heteranthera limosa); test: as above; conditions: 250 g ai/ha, Flood, applied to paddy water, evaluated after 13 days
# How it was run: as §2
# [15] = tested on: oat, wild (wild oat, Avena fatua); test: Test A postemergence application, visual injury rating 0-100
# How it was run: as §1
# [16] = tested on: galium (catchweed bedstraw, Galium aparine); test: as above
# How it was run: as §1
# corn (Zea mays) [17] = test: as above
# How it was run: as §1
# kochia (Bassia scoparia) [18] = test: as above
# How it was run: as §1
# [19] = tested on: ragweed (common ragweed, Ambrosia artemisiifolia); test: as above
# How it was run: as §1
# [20] = tested on: blackgrass (Alopecurus myosuroides); test: as above
# How it was run: as §1
# [21] = tested on: wheat (Triticum aestivum); test: as above
# How it was run: as §1
# soybean (Glycine max) [22] = test: as above
# How it was run: as §1
# [23] = tested on: horseweed (Erigeron canadensis); test: as above
# How it was run: as §1
# [24] = tested on: barnyardgrass (Echinochloa crus-galli); test: as above
# How it was run: as §1
# [25] = tested on: green foxtail (Setaria viridis); test: as above
# How it was run: as §1
# [26] = tested on: ryegrass, Italian (italian ryegrass, Lolium multiflorum); test: as above
# How it was run: as §1
# [27] = tested on: palmer (palmer amaranth, palmer pigweed, Amaranthus palmeri); test: as above
# How it was run: as §1
# [28] = 62 g ai/ha, 0 = no effect, 100 = complete control
# [29] = 62 g ai/ha, postemergence, 10 days, 0 = no effect, 100 = complete control
# [30] = Postemergence, 16 g ai/ha, greenhouse 10 days, 0 no effect, 100 complete control
smiles,measurement,setting,value
COC(=O)C1CC(NC(=O)C2(C)CN(c3cc(F)cc(F)c3)C(=O)O2)C1 (stereo not shown) [Compound 117],"Oat, Wild plant response rating","[1]; 16 g ai/ha, 0 to 100 scale",40
same,"Oat, Wild plant response rating (0-100)",[1]; [28],90
same,Corn plant response rating,"corn (Zea mays) [2]; 16 g ai/ha, 0 to 100 scale",0
same,Corn plant response rating (0-100),corn (Zea mays) [2]; [28],0
same,Kochia plant response rating,"kochia (Bassia scoparia) [3]; 16 g ai/ha, 0 to 100 scale",0
same,Kochia plant response rating (0-100),kochia (Bassia scoparia) [3]; [28],0
same,Ragweed plant response rating,"[4]; 16 g ai/ha, 0 to 100 scale",0
same,Ragweed plant response rating (0-100),[4]; [28],0
same,Blackgrass plant response rating,"[5]; 16 g ai/ha, 0 to 100 scale",30
same,Blackgrass plant response rating (0-100),[5]; [28],60
same,Wheat plant response rating,"[6]; 16 g ai/ha, 0 to 100 scale",0
same,Wheat plant response rating (0-100),[6]; [28],20
same,Soybean plant response rating,"soybean (Glycine max) [7]; 16 g ai/ha, 0 to 100 scale",0
same,Soybean plant response rating (0-100),soybean (Glycine max) [7]; [28],0
same,Barnyardgrass plant response rating,"[8]; 16 g ai/ha, 0 to 100 scale",0
same,Barnyardgrass plant response rating (0-100),[8]; [28],10
same,"Foxtail, Green plant response rating","[9]; 16 g ai/ha, 0 to 100 scale",0
same,"Foxtail, Green plant response rating (0-100)",[9]; [28],80
same,"Ryegrass, Italian plant response rating","[10]; 16 g ai/ha, 0 to 100 scale",0
same,"Ryegrass, Italian plant response rating (0-100)",[10]; [28],70
same,"Pigweed, Palmer plant response rating","[11]; 16 g ai/ha, 0 to 100 scale",0
same,"Pigweed, Palmer plant response rating (0-100)",[11]; [28],10
same,"Plant response rating, Sedge, Umbrella (0 to 100 scale, 0 is no effect and 100 is complete control)",[12],0
same,"Plant response rating, Barnyardgrass (0 to 100 scale, 0 is no effect and 100 is complete control)",[13],0
same,"Plant response rating, Rice (0 to 100 scale, 0 is no effect and 100 is complete control)",rice (Oryza sativa),0
same,"Plant response rating, Ducksalad (0 to 100 scale, 0 is no effect and 100 is complete control)",[14],0
same,"Oat, Wild plant response rating (0-100)",[15]; [29],80
same,"Oat, Wild plant response rating (0 to 100 scale)",[15]; [30],10
same,Galium plant response rating (0-100),[16]; [29],60
same,Galium plant response rating (0 to 100 scale),[16]; [30],50
same,Corn plant response rating (0-100),corn (Zea mays) [17]; [29],100
same,Corn plant response rating (0 to 100 scale),corn (Zea mays) [17]; [30],0
same,Kochia plant response rating (0-100),kochia (Bassia scoparia) [18]; [29],0
same,Kochia plant response rating (0 to 100 scale),kochia (Bassia scoparia) [18]; [30],0
same,Ragweed plant response rating (0-100),[19]; [29],40
same,Ragweed plant response rating (0 to 100 scale),[19]; [30],0
same,Blackgrass plant response rating (0-100),[20]; [29],90
same,Blackgrass plant response rating (0 to 100 scale),[20]; [30],70
same,Wheat plant response rating (0-100),[21]; [29],90
same,Wheat plant response rating (0 to 100 scale),[21]; [30],50
same,Soybean plant response rating (0-100),soybean (Glycine max) [22]; [29],60
same,Soybean plant response rating (0 to 100 scale),soybean (Glycine max) [22]; [30],40
same,Horseweed plant response rating (0-100),[23]; [29],0
same,Horseweed plant response rating (0 to 100 scale),[23]; [30],0
same,Barnyardgrass plant response rating (0-100),[24]; [29],70
same,Barnyardgrass plant response rating (0 to 100 scale),[24]; [30],0
same,"Foxtail, Green plant response rating (0-100)",[25]; [29],90
same,"Foxtail, Green plant response rating (0 to 100 scale)",[25]; [30],30
same,"Ryegrass, Italian plant response rating (0-100)",[26]; [29],80
same,"Ryegrass, Italian plant response rating (0 to 100 scale)",[26]; [30],60
same,"Pigweed, Palmer plant response rating (0-100)",[27]; [29],10
same,"Pigweed, Palmer plant response rating (0 to 100 scale)",[27]; [30],0

# — patent US20260285850A1, “SUBSTITUTED OXAZOLIDINONES AND IMIDAZOLINONES AS HERBICIDES” (FMC CORPORATION, priority 2023, published 2026)
